What was measured:
Helicoverpa armigera = settings: H. armigera, cited from earlier work
Chilo suppressalis = settings: C. suppressalis, cited from earlier work
[1] = system: Y. lipolytica strain ST8881; format: cell-based, Yarrowia lipolytica; settings: antifoaming agent 3 v/v %
From the text: Strain ST8327 has been engineered to produce (Z)11-hexadecen-1-ol. […] The strain expresses the Δ11 desaturase from Amyelois transitella (SEQ ID NO: 1) and fatty acyl-CoA reductase from Helicoverpa armigera (SEQ ID NO: 5). Strain ST8762 has been engineered to produce (Z)9-tetradecen-1-ol. The strain expresses the Δ9 desaturase from Drosophila melanogaster (SEQ ID NO: 16) and fatty acyl-CoA reductase from Helicoverpa armigera (SEQ ID NO: 5). […] A strain was inoculated from a YPD agar plate (10 g/L yeast extract, 10 g/L peptone, 20 g/L glucose, 15 g/L agar agar) to an initial OD600 of 0.1-0.2 into 2.5 mL YPG medium (10 g/L yeast extract, 10 g/L peptone, 40 g/L glycerol) in 24 well-plate (EnzyScreen). The plate was incubated at 28° C. and 300 rpm for 22 hours. […] At the same time, 95 μL of Antifoam A (ethoxylated and propoxylated C16-18 alcohols, CAS No. 68002-96-0), corresponding to […] (i.e. above the recommended dose of 0.1 v/v % for foam management and above the cloud concentration), was added. The plate was incubated at 28° C. and 300 rpm for 28 hours. Each experiment was performed in biological triplicates.
The intracellular and extracellular concentrations of fatty alcohols were assessed as follows. 1000 μL of culture broth was transferred to a 4 mL gas-tight glass extraction vial. The sample was centrifuged at 3,500 g for 5 min at room temperature. The supernatant was transferred into a new glass vial with 990 μL of hexane and 10 μL of internal standard (IS) solution (20 mg/L of methyl Z10-heptadecanoate in ethyl acetate). The vial was vortexed for 10 s and centrifuged as before. 250 μL of the upper hexane phase was transferred to a GC vial for GC-MS analysis of the extracellular fatty alcohol concentration. The pellet remaining after the removal of the supernatant from the centrifuged culture broth was resuspended in 990 μL of solvent mixture (EtOAc and EtOH) and 10 μL of IS solution as above. The sample was incubated for 1 h with periodic mixing. 300 μL water was added and the vials were centrifuged at 3,500 g for 5 min at room temperature. 250 μL of the upper organic phase was transferred to a GC vial for GC-MS analysis of the intracellular fatty alcohols. GC-MS analyses were performed on an Agilent 7820A GC coupled to a mass selective detector Agilent 5977B. The GC was equipped with an DB Fatwax column (30 m×0.25 mm×0.25 μm), and helium was used as carrier gas. The MS was operated in electron impact mode (70 eV), scanning between m/z 30 and 400, and the injector was configured in split mode 20:1 at 220° C. Oven temperature was set to 80° C. for 1 min, then increased at a rate of 20° C./min to 210° C., followed by a hold at 210° C. for 7 min, and then increased at a rate of 20° C./min to 230° C. Compounds were identified by comparison of retention times and mass spectra of the reference compounds. Compounds were quantified by the ion 55.1 m/z. Data were analysed by the Agilent Masshunter software. The concentrations of fatty alcohols were calculated based on standard calibration curves prepared with reference standards.
Here we investigated the effect of different antifoaming oils and agents on the recovery of fatty alcohols in a separate phase. The experiments were performed with engineered Y. lipolytica strain ST8881 following the procedures as in Example 1.
The control experiment was performed without addition of any antifoaming oil or agent.

| SMILES | Behavioral response (Helicoverpa armigera) | Behavioral response (Chilo suppressalis) | % secretion of Z11.hexadecen-1-ol [1] | Extracellular concentration of Z11.hexadecen-1-ol [1] | Total concentration of Z11-hexadecen-1-ol [1] [mg/L] | Effect on the activity of an artificial pheromone formulation when added to Z11-16:Ald (Helicoverpa armigera; Kehat et al., 1990) | Interaction with the two primary pheromone components Z11-16:Ald and Z13-18:Ald (Chilo suppressalis; Tatsuki et al.) |
| --- | --- | --- | --- | --- | --- | --- | --- |
| CCCCCCCCCCCCCCCC=O [16:Ald, n-Hexadecanal] | neutral | does not elicit a behavioral response | – | – | – | – | – |
| CCCCCCCCCCCC [Dodecane] | – | – | 0 (0%) | 0 (0%) | 720.0 ± 95.6 | – | – |
| CCCCCCCC/C=C\CCCCCCCC(=O)O [Oleic acid] | – | – | 0 (0%) | 0 (0%) | 1008.4 ± 648.6 | – | – |
| CCCCCC/C=C\CCCCCCCC=O [Z9-16:Ald] | – | – | – | – | – | enhance the activity | synergistic |
